Measured values taken from the supplement of paper PMC9244889.
Structures can show the parent of a compound that is named as a salt.

Experiments:
Vero E6 [1] = test: inhibition of SARS-CoV-2-induced cytopathic effect relative to cell and virus controls; higher = more antiviral protection; conditions: 72 h, virus: SARS-CoV-2 propagated original strain, 100 TCID50, assay detail: infected
Experimental: (§1)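 Vero E6 C1008 cells (2e4 cells/well) were treated with a 3-fold dilution series of each drug (monotherapy), with or without live SARS-CoV-2 (propagated original strain, 100 TCID50). After 72 h at 37 °C, viability was read with Viral ToxGlo (ATP luminescence). %Inhibition of virus-induced CPE and %Cytotoxicity (uninfected) were normalised to cell and virus controls. Triplicates. The paper excluded %Inhibition points with >25% cytotoxicity from its curve fits.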

Vero E6 [2] = test: cytotoxicity relative to untreated cell control; higher = more toxic; conditions: 72 h, assay detail: uninfected
Experimental: as §1

Cc1ccc(NC(=O)c2ccc(CN3CCN(C)CC3)cc2)cc1Nc1nc(-c2cccnc2)cs1 [masitinib]
Conditions	cytotoxicity, Vero E6 [2] [%]	inhibition of SARS-CoV-2-induced cytopathic effect, Vero E6 [1] [%]
0.000564503 µM	-15.3	0.87
0.00169351 µM	-17.5	1.03
0.00508053 µM	-21.6	2.14
0.0152416 µM	-16.3	1.2
0.0457247 µM	-19.4	0.66
0.137174 µM	-17.8	0.458
0.411523 µM	-19.8	3.69
1.23457 µM	-15.2	8.75
3.7037 µM	4.4	42.8
11.1111 µM	83.4	18.1
33.3333 µM	99.617	-7.42
100 µM	99.831	-17.86

N=C(N)Nc1ccc(C(=O)Oc2ccc3cc(C(=N)N)ccc3c2)cc1 [nafamostat mesylate]
Conditions	cytotoxicity, Vero E6 [2] [%]	inhibition of SARS-CoV-2-induced cytopathic effect, Vero E6 [1] [%]
56.45 pM	-10.2	1.36
0.000169351 µM	-7.59	0.555
0.000508053 µM	-1.77	1.31
0.00152416 µM	-4.85	0.363
0.00457247 µM	-6	0.453
0.0137174 µM	-9.55	0.391
0.0411523 µM	-7.66	-0.525
0.123457 µM	-5.32	-0.383
0.37037 µM	1.08	0.358
1.11111 µM	-2.6	0.841
3.33333 µM	1.59	0.526
10 µM	-0.485	-0.288

CCC(CC)COC(=O)[C@H](C)N[P@](=O)(OC[C@H]1O[C@@](C#N)(c2ccc3c(N)ncnn23)[C@H](O)[C@@H]1O)Oc1ccccc1 [remdesivir]
Conditions	cytotoxicity, Vero E6 [2] [%]	inhibition of SARS-CoV-2-induced cytopathic effect, Vero E6 [1] [%]
0.000564503 µM	-22.9	1.31
0.00169351 µM	-17.3	1.17
0.00508053 µM	-11.8	-0.59
0.0152416 µM	-6.94	-0.693
0.0457247 µM	-6.5	-0.335
0.137174 µM	-4.51	1.45
0.411523 µM	-1.99	6.62
1.23457 µM	-7.93	42.2
3.7037 µM	-2.61	111
11.1111 µM	2.25	108
33.3333 µM	9.25	96.6
100 µM	59.6	44.1

CC(C)c1nc(CN(C)C(=O)N[C@H](C(=O)N[C@@H](Cc2ccccc2)C[C@H](O)[C@H](Cc2ccccc2)NC(=O)OCc2cncs2)C(C)C)cs1 [ritonavir]
Conditions	cytotoxicity, Vero E6 [2] [%]	inhibition of SARS-CoV-2-induced cytopathic effect, Vero E6 [1] [%]
0.00112901 µM	-15.2	2.5
0.00338702 µM	-13.3	3.51
0.0101611 µM	-27.3	1.73
0.0304832 µM	-22.5	0.79
0.0914495 µM	-33.3	2.39
0.274348 µM	-28.6	0.802
0.823045 µM	-22	1.81
2.46914 µM	-21.4	1.96
7.40741 µM	-27.3	2.22
22.2222 µM	-38.7	7.59
66.6667 µM	8.14	2.75
200 µM	69.7	-2.18

O=C(/C=C\n1cnc(-c2cc(C(F)(F)F)cc(C(F)(F)F)c2)n1)NNc1cnccn1 [selinexor]
Conditions	cytotoxicity, Vero E6 [2] [%]	inhibition of SARS-CoV-2-induced cytopathic effect, Vero E6 [1] [%]
0.000564503 µM	14.6	1.79
0.00169351 µM	14.9	0.365
0.00508053 µM	7.61	-1.85
0.0152416 µM	7.88	-2.96
0.0457247 µM	29.1	-4.3
0.137174 µM	23.4	-3.81
0.411523 µM	35.6	-3.25
1.23457 µM	47.2	-2.87
3.7037 µM	48.93	-1.23
11.1111 µM	44.1	8.51
33.3333 µM	89.1	-1.32
100 µM	99.74	-15.08

CCC[C@H](NC(=O)[C@@H]1[C@H]2CCC[C@H]2CN1C(=O)[C@@H](NC(=O)[C@@H](NC(=O)c1cnccn1)C1CCCCC1)C(C)(C)C)C(=O)C(=O)NC1CC1 [telaprevir]
Conditions	cytotoxicity, Vero E6 [2] [%]	inhibition of SARS-CoV-2-induced cytopathic effect, Vero E6 [1] [%]
0.000564503 µM	0.259	0.117
0.00169351 µM	-0.00145	1.28
0.00508053 µM	-4.54	-0.629
0.0152416 µM	-3.42	-0.222
0.0457247 µM	-3.36	0.129
0.137174 µM	-8.35	-0.93
0.411523 µM	-3.53	-0.643
1.23457 µM	-4.1	1.01
3.7037 µM	-6.16	0.773
11.1111 µM	-1.51	0.394
33.3333 µM	17.2	-2.07
100 µM	80.5	17.4
